Results from US4769382A, “Preparation for preventing and treatment of skin radiation burn lesions” (priority 1986, dated 1988).

Experiments:
Type in all cases: in vivo, random-bred albino rats
skin (rat) = assay: Comparative evaluation of radioprotective effect with known preparations, local X-ray irradiation 30 Gy
Source text: For a comparative evaluation the data obtained in a similar experiment with a number of known preparations (castamine, ionol, dimethylsulphoxide), as well as with eugenol (3-methoxy-4-hydroxyallylbenzene) and castor oil were used.
Ionol (4-methyl-2,6-ditretbutylphenol) is employed as control as an analog-antioxidant featuring a radioprotective activity.

skin of paws (rat) = assay: Radioprotective effect on skin of rat paws upon X-ray irradiation (20 and 30 Gy); conditions: 20 Gy
[1] = test system: skin of the auricle (rat); assay: Local radioprotective effect on skin of rat auricle upon β-irradiation (60 Gy); conditions: β-radiation; for Duration of response, dry desquamation / Duration of response, moist desquamation / Duration of response, severe erythema / Duration of response, weak erythema: Eeff 0.76 MeV, applied 20 minutes before irradiation, X ± m
Description: The effect of β-radiation was studied on the skin of floors of the auricle by way of using a flexible applicator containing a source of a soft beta-radiation of ^204 T1. The maximum energy (E) in tissues is […]. The dose rate of the employed sources was 7.2 and 12 Gy/h. […] The extent of the skin radioprotective effect was assessed by a number of clinical dermatological tests by recording visual observations over the progress of radiation dermatitis. The tests were effected by the blank method at strictly predetermined hours of the day by a team of specialists. The form of dermatitis in each irradiated skin locus (moist or dry desquamation, intense and weak erythema) was recorded daily by means of special codes over the entire observation period. The number of the same codes for every irradiated skin locus (frequencies of features) were summed up and a group mean value was calculated. […] The thus-obtained values were statistically processed and evaluated by means of the Student criterion. Therefore, the severity of radiodermatitis was quantified by means of the following tests: (a) duration of periods of light and severe erythema; (b) duration of periods of moist and dry desquamation.

back skin (rat) = assay: Antiburning effect on thermal burn (III degree) of the back skin
Description: Since the leading role in the pathogenesis of thermal death of cells is played by processes of injury of cellular membranes, the preparation according to the present invention has been tested for feasibility of its use as an antiburning preparation. […] The contact plate of the electric heater had the temperature of 200° C., the exposure time--10 seconds. […] As judged by the clinico-histological assessment, the severity of the thus-produced injury corresponded to a III degree burn. The course of treatment of the animals was started directly after effecting an experimental burn and continued till a complete healing of the wound surface. […] The ointments were prepared on lanolin or vaseline base with different content of the active principle. […] Vaseline and lanolin were used as control.

[2] = Eeff 8 keV, groups 5 (dimethylsulphoxide) and 6 (5% emulsion on vaseline), X ± m

Cc1cc(C(C)(C)C)c(O)c(C(C)(C)C)c1 [Ionol, 4-methyl-2,6-ditertiarybutylphenol]
Reduction of duration of radiation response stages, erythema (skin (rat)): 28.0% | Reduction of duration of radiation response stages, moist desquamation (skin (rat)): 43.0% | Total weighed evaluation (skin (rat)): 37.85%

C[S+](C)[O-] [Dimethylsulphoxide, dimethylsulphoxide]
Reduction of duration of radiation response stages, moist desquamation (skin (rat)): 30.0% | Total weighed evaluation (skin (rat)): 22.5% | Diminution of response, dry desquamation (skin of paws (rat)): 50 % of the control | Duration of response, dry desquamation (skin of paws (rat); [2]): 2.8 ± 0.6 days | Duration of response, moist desquamation (skin of paws (rat); [2]): 0.1 ± 0.1 days | Duration of response, severe erythema (skin of paws (rat); [2]): 0.4 ± 0.3 days | Duration of response, weak erythema (skin of paws (rat); [2]): 1.6 ± 0.3 days | Diminution of response, moist desquamation [1]: 100 % of the control | Duration of response, dry desquamation [1]: 1.0 ± 1.2 days | Duration of response, moist desquamation [1]: 0.0 ± 0.0 days | Duration of response, severe erythema [1]: 1.3 ± 1.7 days | Duration of response, weak erythema [1]: 1.7 ± 1.7 days

C=CCc1ccc(O)c(OC)c1 [Eugenol, 3-methoxy-4-hydroxyallylbenzene]
Reduction of duration of radiation response stages, moist desquamation (skin (rat)): 36.0% | Total weighed evaluation (skin (rat)): 27.5%

CC(C)(CO)C(O)C(=O)NCCCO (stereo not shown) [Panthenol]
Healing period, female (back skin (rat); female rats, control I (vaseline) 36.8 ± 6.8, control 2 (lanolin) 36.5 ± 6.5): 36.0 ± 7.0 days | Stimulant effect, female (back skin (rat); female rats, relative to control I (vaseline)): +2.2% | Healing period, male (back skin (rat); male rats, control I (vaseline) 32.8 ± 4.0, control 2 (lanolin) 33.1 ± 3.5): 29.7 ± 4.3 days | Stimulant effect, male (back skin (rat); male rats, relative to control 2 (lanolin)): +10,3%

CCOC(=O)C1=C(C)NC(C)=C(C(=O)OCC)C1 [Compound of the invention, 2,6-dimethyl-3,5-diethoxycarbonyl-1,4-dihydropyridine]
Diminution of response, dry desquamation [1]: 86 % of the control | Diminution of response, moist desquamation [1]: 100 % of the control | Diminution of response, severe erythema [1]: 86 % of the control | Duration of response, dry desquamation [1]: 0.3 ± 0.2 days | Duration of response, moist desquamation [1]: 0.0 ± 0.0 days | Duration of response, severe erythema [1]: 0.3 ± 0.3 days | Duration of response, weak erythema [1]: 1.7 ± 0.5 days
